Source: US20240018198A1, “MU-DIGUETOXIN-DC1A VARIANT POLYPEPTIDES FOR PEST CONTROL” (Vestaron Corporation, priority 2020, published 2024)
linker = not defined here; ERSP = not defined here

Key:
[1] = tested on: Adult houseflies (Musca domestica); experiment: Housefly injection assay with plant-expressed proteins (TSP extract); assay type: in vivo; details: 2 hours post-injection; 0.5 μL TSP extract per fly; impacted = knock-down and dead
Method: Full length DVP-insecticidal protein was purified from the tobacco by using a manual extraction technique. Leaf tissue was obtained via 30 mm diameter punch, from the infiltrated area, rolled up and placed inside a 2 mL conical bottom tube with two, 5/32 inch diameter stainless steel grinding balls, and frozen in liquid nitrogen. The samples were then homogenized using a Troemner-Talboys High Throughput Homogenizer. Next, a 750 μL ice-cold total soluble protein (TSP) extraction solution (sodium phosphate solution 50 mM, EDTA 1 mM, pH 7.0) was added into the tube and vortexed. The microtube was then left to incubate at room temperature for 15 minutes, and then centrifuged at 16,000×g for 15 minutes at 4° C. Next, 100 μL of the resulting supernatant was taken and loaded into pre-Sephadex G-50-packed column in 0.45 μm Millipore MultiScreen filter microtiter plate with empty receiving Costar microtiter plate on bottom. The microtiter plates were then centrifuged at 800 g for 2 minutes at 4° C. The resulting filtrate solution (hereinafter “total soluble protein extract” or “TSP extract”) of the tobacco leaves, was ready for downstream analysis.
Houseflies were injected with the TSP extract obtained from the plant extraction process described above. Prior to injection, adult houseflies (Musca domestica) were immobilized with CO2, and selected for injection based on weight (12-20 mg). […] Impacted scores include knock-down and dead.

[2] = tested on: Corn earworm (Helicoverpa zea); experiment: Screen for mutants improving CEW activity (injection of concentrated supernatants); assay type: in vivo
Method: Mutations of Dc1a were made to screen for recovery of CEW activity. Here, mutants were synthesized and cloned according the methods described above. […] Supernatants were combined and concentrated 10× using centrifugal filtration cassettes (Pall) with a 3000 Da molecular weight cutoff. Concentrates were then injected into Corn earworm (Helicoverpa zea).
Corn earworm (CEW) larvae were injected in their fourth instar. Eggs of H zea were purchased (Benzon Research, 7 Kuhn Dr, Carlisle, PA, 17015) and reared to fourth instar on General Purpose Lepidoptera Diet (Frontier Agricultural Science, Newark, DE). Prior to injection larvae were weighed in order to calculate μmol/g doses. Injections volumes are 1 μL, and were performed with a 30 gauge needle and glass syringe in a hand microapplicator (Burkard, Rickmansworth, Herts, England). The injection site was near the base of one of the hindmost prolegs. Following the injection, larvae are placed in a new enclosure with General Purpose Lepidoptera Diet and their condition (including mortality, sublethal effects, and behavior) is evaluated 24-hours post-injection.

Which “% Impacted” value [1] does the source give for “M3: plant-expressed DVP-insecticidal protein ERSP-UBI-L-DVP-HIS, DVP SEQ ID NO 189 ({ERSP-ubiquitin-linker}-AKDGDVEGPAGCKKYDVECDSGECCQKQYLWHKWRALDCRCLKSGFFSSKCVCRDV-{His tag}; cysteine pairing not given here; reading uncertain)” here?
The value was 80%.

Which “% Impacted” value [1] does the source give for “M4: plant-expressed DVP-insecticidal protein ERSP-UBI-L-DVP-HIS, DVP SEQ ID NO 190 ({ERSP-ubiquitin-linker}-AKDGDVEGPAGCKKYDVECDSGECCQKQYLFSKWRPLDCRCLKSGFFSSKCVCRDV-{His tag}; cysteine pairing not given here; reading uncertain)” here?
The value was 100%.

“M1: plant-expressed DVP-insecticidal protein ERSP-UBI-L-DVP-HIS, DVP SEQ ID NO 187 ({ERSP-ubiquitin-linker}-AKDGDVEGPAGCKKYDVECDSGECCQKQYLWSKWRALDCRCLKSGFFSSKCVCRDV-{His tag}; cysteine pairing not given here; reading uncertain)” was tested. Which “% Impacted” value [1] did it give?
The value was 60%.

For “C41K/C51E/D38A/L42V: Mu-diguetoxin-Dc1a variant polypeptide; printed sequences differ at position 41 (D in Table 1, K in Table 9) (AKDGDVEGPAGCKKYDVECDSGECCQKQYLWYKWRPLACRKVKSGFFSSKEVCRDV; C41K/ C51E/ D38A/ L42V DVP)”, which Activity ([2]; Table 9: CEW fourth instar, 10x concentrated supernatants, 1 μL injection, 24 hours) is on record?
Its Activity is “Yes”.

What about the “CEW KD50” value ([2]; Table 10: category relative to WT) of the same substance?
Its value is “Reduced (Reduced=>1.5)”.

How did the “% Impacted” value [1] turn out when “M2: plant-expressed DVP-insecticidal protein ERSP-UBI-L-DVP-HIS, DVP SEQ ID NO 188 ({ERSP-ubiquitin-linker}-AKDGDVEGPAGCKKYDVECDSGECCQKQYLWKKWRALDCRCLKSGFFSSKCVCRDV-{His tag}; cysteine pairing not given here; reading uncertain)” was run?
The value was 60%.
